Data: US10829522B2, “Peptide inhibiting colonization by pathogenic bacteria, and colonization inhibitor including same” (OSAKA UNIVERSITY, priority 2016, dated 2020)

Assays:
ΔN28-CofB = assay: Isothermal titration calorimetry, interaction with ΔN28-CofB; assay type: binding, enterotoxigenic Escherichia coli (ETEC); settings: ITC; for Kd: 25° C., 20 mM Tris-HCl (pH 8.0), 150 mM NaCl, ΔN28-CofB in terms of trimer, read-out: dissociation constant Kd value; for binding affinity to ΔN28-CofB compared with the binding affinity between CofJ and ΔN28-CofB: stronger than CofJ
Description: The expression and purification methods were carried out according to past papers (Fukakusa, S, et al. Acta Cryst. 2012, D68, 1418-1429; Kawahara, K, et al. J. Mol. Biol, 2016, 428, 1209-1226).
Interaction analysis was performed using CofB, CofJ and ΔN24-CofJ prepared by the above methods. An isothermal titration calorimeter Microcal iTC 200 (manufactured by GE Healthcare) was used for analysis of the interaction between the secretory protein CofJ and ΔN28-CofB. A 0.59 mM CofJ solution was charged in a titration syringe and a 28.5 μM (in terms of trimer) ΔN28-CofB solution was charged in a measuring cell, respectively, and the interaction of them was evaluated by directly observing heat changes that occur upon dropping the CofJ solution into the ΔN28-CofB solution. Titration conditions were such that the initial dropping amount was 1 μL, the dropping amount at the second and subsequent times was 2 μL, and dropping was performed 20 times in total every 120 seconds. The measurement temperature was 25° C., and the solvent was 20 mM Tris-HCl (pH 8.0), 150 mM NaCl. An exothermic change was observed by dropping the CofJ solution, which converged to the same level as the heat of dilution as the titration progressed. As a result of analysis of the obtained data using an analysis software Origin (Microcal), binding of CofJ and ΔN28-CofB was observed. The dissociation constant Kd value of both was 0.2 μM.
Next, in order to investigate the contribution to binding to pili in the N-terminal region (1 to 24) of the secretory protein CofJ, analysis of the interaction between ΔN24-CofJ and ΔN28-CofB was carried out using an isothermal titration calorimeter Microcal iTC 200 (manufactured by GE Healthcare). A 0.59 mM ΔN24-CofJ solution was charged in a titration syringe and a 28.5 μM (in terms of trimer) ΔN28-CofB solution was charged in a measuring cell, respectively, and the interaction of them was evaluated by directly observing heat changes that occur upon dropping the ΔN24-CofJ solution into the ΔN28-CofB solution. No change in caloric value due to dropping of the ΔN24-CofJ solution was observed.
Furthermore, in order to investigate the contribution to binding to pili in the N-terminal region (1 to 24) of the secretory protein CofJ, analysis of the interaction between a synthetic peptide consisting of 24 amino acid residues at the N terminal of CofJ (CofJ^1-24 peptide) purchased from Scrum Co., Ltd. and ΔN28-CofB was carried out using an isothermal titration calorimeter Microcal iTC200 (manufactured by GE Healthcare) in the same manner as described above. A 2 mM CofJ^1-24 peptide solution was charged in a titration syringe and a 33.9 μM (in terms of trimer) ΔN28-CofB solution was charged in a measuring cell, respectively, and the interaction of them was evaluated by directly observing heat changes that occur upon dropping the CofJ^1-24 peptide solution into the ΔN28-CofB solution. An exothermic change was observed by dropping the CofJ^1-24 peptide solution, which converged to the same level as the heat of dilution as the titration progressed. As a result of analysis of the obtained data using an analysis software Origin, binding of the CofJ^1-24 peptide and ΔN28-CofB was observed. The dissociation constant Kd value of both was 4 μM.
Next, in order to investigate the binding specificity of the CofJ^1-24 peptide, analysis of the interaction between a synthetic random peptide (CofJpepR) purchased from Scrum Co., Ltd. and ΔN28-CofB was carried out using an isothermal titration calorimeter Microcal iTC 200 (manufactured by GE Healthcare). A 2 mM random peptide solution was charged in a titration syringe and a 28.5 μM (in terms of trimer) ΔN28-CofB solution was charged in a measuring cell, respectively, and the interaction of them was evaluated by directly observing heat changes that occur upon dropping the […] into the ΔN28-CofB solution. No change in caloric value due to dropping of the random peptide solution was observed. […]

[1] = system: binding of CofJ and Trx-His-ΔN28-CofB; assay: Pull down assay using a Ni column, inhibition of CofB/CofJ binding; parameters: species or system enterotoxigenic Escherichia coli (ETEC); settings: SDS-PAGE
Source text: To examine whether the CofJ^1-24-GCN4 inhibitory peptide is capable of inhibiting the binding of CofB and CofJ, it was confirmed in the in vitro experiment system by pull down assay using a Ni column. For experiments, ΔN28-CofB (Trx-His-ΔN28-CofB), CofJ, CofJ^1-24-GCN4, a CofJ^1-24 peptide and a peptide (CofJpepR) in which the amino acid sequence of the CofJ^1-24 peptide was randomized, with added thioredoxin tag (Trx) and His tag, were used. The sequence of CofJpepR is […] (SEQ ID NO: 22).
(§1) Solutions mixed so that the concentration of Trx-His-ΔN28-CofB was 1 μM and the concentration of CofJ^1-24-GCN4 was (0, 0.5, 1.0, 2.0, 5.0, 10.0 μM) were allowed to stand still on ice overnight. Further, CofJ was mixed so that the final concentration became 1 μM, and the mixtures were allowed to stand still on ice for 1 hour, to obtain experiment samples. Each sample was applied to a Ni column equilibrated with 20 mM Tris-HCl, 150 mM NaCl, pH 8.0, and the column was washed with 20 mM Tris-HCl, 150 mM NaCl, 15 mM Imidazole, pH 8.0. Thereafter, elution was performed with 20 mM Tris-HCl, 150 mM NaCl, 300 mM Imidazole, pH 8.0, and the eluted fraction was confirmed by SDS-PAGE.
Also for the CofJ^1-24 peptide and CofJpepR, the inhibition ability thereof was investigated by the same method. Specifically, solutions mixed so that the concentration of Trx-His-ΔN28-CofB was 1 μM and the concentration of the CofJ^1-24 peptide and CofJpepR was 1000 μM were allowed to stand still on ice overnight. Further, CofJ was mixed so that the final concentration became 1 μM, and the mixtures were allowed to stand still on ice for 1 hour, to obtain experiment samples. The pull down assay was performed in the same manner as described above. […] From this, it is considered that CofJ^1-24-GCN4 can inhibit the binding between CofB and CofJ by strongly binding with CofB by trimerizing.
In order to investigate whether the CofJ^4-16-GCN4 inhibitory peptide can inhibit the binding of CofB and CofJ, it was confirmed in the in vitro experimental system by a pull down assay using a Ni column. For the experiment, ΔN28-CofB (Trx-His-ΔN28-CofB), CofJ and CofJ^4-16-GCN4, with added thioredoxin tag (Trx) and His tag (His), were used.
as §1, with “CofJ^4-16-GCN4” for “CofJ^1-24-GCN4”, “Thereafter, elution was performed with 20 mM Tris-HCl, 150 mM NaCl, 300 mM Imidazole, pH 8.0, and the eluted fraction was confirmed by SDS-PAGE.” left out

[2] = system: HB101 cof adhesion to Caco2 cells; assay: ETEC adhesion inhibitory activity using Caco2 cells; assay type: cell-based, Escherichia coli; settings: 1, 10, 100 μg/mL
Description: First, Caco2 cells were dispersed using Dulbecco's Modified Eagle's Medium (DMEM) containing 50 μg/mL gentamicin and 10% fetal bovine serum, the cell concentration was measured using a blood cell counting chamber and diluted to 3.0×10^5 cells/mL. Dilution liquid was added to a 6-well plate each in an amount of 500 μL, and culture was performed by allowing the plate to stand still in a CO2 incubator at 5% CO2 and 37° C. for 48 hours. The cultured Caco2 cells were washed with PBS twice. After washing, DMEM containing 100 μg/mL ampicillin and 1% D-mannose was filtrated by passing through a 0.22 μm filter, then, the solution was added each in an amount of 500 μL to each well.
Next, a small amount of the glycerol stock of HB101 cof was scraped off and added to LB medium containing 100 μg/mL ampicillin, and shaking culture was carried out overnight at 25° C. The culture liquid was suitably diluted and OD660 of the culture liquid was calculated using a turbidimeter. The culture liquid was serially diluted and CFU (colony forming unit) was measured. From the measured CFU, the concentration (cells/mL) of HB101 cof at OD660=1.0 was calculated. This calculated value was used to determine the concentration of HB101 cof later. […]
ETEC adhesion inhibitory activity was evaluated in the same manner as in Example 9 using CofJ^4-16-GCN4. […]

[3] = peptide premixed at a concentration not lower than that of CofJ (1 μM), 0.5-10.0 μM tested
[4] = peptide 1000 μM (1000 times that of CofJ, 1 μM)

CofJ^1-24-GCN4: GPLG, CofJ 1-24 sequence (SEQ ID NO: 1), linker TSGGG (SEQ ID NO: 9) and GCN4 sequence (SEQ ID NO: 6); expressed in E. coli
Kd (ΔN28-CofB): 40 nM | binding affinity to ΔN28-CofB compared with the binding affinity between CofJ and ΔN28-CofB (ΔN28-CofB): about 5 times | inhibition of the binding of CofJ and Trx-His-ΔN28-CofB [1, 3]: strongly inhibited | inhibition of colonization of HB101 cof to Caco2 cells [2]: inhibits colonization of HB101 cof to Caco2 cells in concentration-dependent manner

CofJ^4-16-GCN4: GPLG, SSEGGAFTVNMPK (SEQ ID NO: 23), linker TSGGG (SEQ ID NO: 9) and GCN4 sequence (SEQ ID NO: 6); expressed in E. coli
Kd (ΔN28-CofB): 80 nM | binding affinity to ΔN28-CofB compared with the binding affinity between CofJ and ΔN28-CofB (ΔN28-CofB): about 2.5 times | inhibition of the binding of CofJ and Trx-His-ΔN28-CofB [1, 3]: strongly inhibited | inhibition of colonization of HB101 cof to Caco2 cells [2]: inhibits colonization of HB101 cof to Caco2 cells in concentration-dependent manner

NPSGFDKSGSSTTRTPAMSVIVDE [CofJpepR, reference compound]
binding to ΔN28-CofB (change in caloric value) (ΔN28-CofB; 28.5 μM ΔN28-CofB in cell): do not bind | inhibition of the binding of CofJ and Trx-His-ΔN28-CofB [1, 4]: can not be inhibited at all

SPSSSEGGAFTVNMPKTSTVDDIR [CofJ^1-24 peptide, reference compound]
Kd (ΔN28-CofB): 4000 nM | inhibition of the binding of CofJ and Trx-His-ΔN28-CofB [1, 4]: hardly inhibited

SSEGGAFTVNMPK [CofJ^4-16 peptide, reference compound]
Kd (ΔN28-CofB): 4000 nM
